Entries after “also recorded” stand apart in the source; their conditions may differ.
Tests used:
[1] = tested on: adenylyl cyclase V/VI; assay: Adenylyl cyclase V/VI expression (western blot) in CLP mice; assay type: in vivo, mouse; conditions: SDG following CLP
Procedure: (§1) Mice were either sham treated (n=3) or subjected to cecal ligation puncture (CLP, n=6). SDG was administered to three mice following CLP.

[2] = tested on: MCU and MICU1; assay: MCU and MICU1 expression in heart tissue of CLP mice; assay type: in vivo, mouse
Procedure: as §1
(§2) RNA purification and gene expression analysis—Total RNA was purified from AC16 cells or hearts using the TRIzol reagent according to the instructions of the manufacturer (Invitrogen). DNase-treated RNA was used for cDNA synthesis using the ProtoScript II First Strand cDNA Synthesis Kit (New England Biolabs). Quantitative real-time PCR was performed with the Sybr Select Master Mix (Applied Biosystems). Incorporation of the SYBR green dye into the PCR products was monitored with the Applied Biosystems StepOnePlus Real-Time PCR System. Samples were normalized against mouse 36B4 or human rps13 RNA.
(§3) Protein purification and analysis—Isolated heart tissue or AC16 cells were homogenized in radioimmune precipitation assay buffer containing protease and phosphatase inhibitors (Pierce Protease and Phosphatase Inhibitor Mini Tablets, Thermo Scientific). 30-50 μg of total protein extract was applied to SDS-PAGE and transferred onto nitrocellulose membranes.

[3] = tested on: IκBα; assay: Phosphorylated and total IkBα immunoblot, ventricular tissue; assay type: in vivo, mouse; conditions: ventricular tissue 12 hours post-surgery
Procedure: as §3

[4] = tested on: β adrenergic receptors; assay: Radioligand binding assay for cardiac β-AR density; assay type: in vivo, mouse; conditions: hearts 12 h post-CLP, LGM2605 6 h post-CLP
Procedure: Radioligand binding assay—Plasma membranes from excised mouse hearts were prepared, and saturation radio-ligand binding was performed as described previously, using ^125I-CYP (iodocyanopindolol; PerkinElmer, Waltham, Mass.) for β-AR density measurement. Data were analyzed by nonlinear regression analysis using GraphPad Prism (GraphPad Software, La Jolla, Calif.).

[5] = tested on: ventricular tissue of septic mice; assay: Glucose and fatty-acid metabolism related gene expression in ventricular tissue; assay type: in vivo, mouse
Procedure: as §2

[6] = Plasma glucose and triglyceride levels in septic mice; assay type: in vivo, mouse
[7] = tested on: ventricular tissue of septic mice; assay: Mitochondrial biogenesis, fusion and fission gene expression in ventricular tissue; assay type: in vivo, mouse
Procedure: as §2

[8] = tested on: permeabilized adult cardiomyocytes; assay: Calcium uptake assay in permeabilized adult cardiomyocytes; assay type: in vivo, mouse; conditions: cardiomyocytes isolated 12 h after CLP, 6 h after LGM2605
Procedure: Calcium uptake assay in permeabilized adult cardiomyocytes Cardiomyocytes were isolated from mice 12 hours after CLP or sham surgery and 6 hours after LGM2605 or saline injection. Calcium uptake was performed as previously described^22 and detailed below. Before permeabilization, cardiomyocytes were washed in a Ca free buffer (120 mM NaCl, 5 mM KCL 1 mM KH2PO4, 0.2 mM MgCl2, 0.1 mM EGTA and 20 mM HEPES-NaOH, at pH 7.4) and stored on ice for at least 10 min. Cardiomyocytes were pelleted by centrifugation and transferred to an intracellular-like medium (permeabilization buffer: 120 mM KCl, 10 mM. NaCl, 1 mM KH2PO4, 20 mM, 4 HEPES-Tris, at pH 7.2, protease inhibitors (EDTA-free complete tablets, Roche Applied Science), 2 μM thapsigargin and digitonin (40 μg ml^−1)). The cell suspension supplemented with succinate (2 mM) was placed in a fluorimeter and permeabilized by gentle stirring. Fura2FF (0.5 μM) was added at 0 s, and JC-1 (800 nM) at 20 s. Fluorescence signal was monitored in a temperature-controlled (37° C.) multiwavelength-excitation dual-wavelength-emission spectrofluorometer (Delta RAM, Photon Technology International) using 490-nm excitation/535-nm emission for the JC-1 monomer. 570-nm excitation/595-nm emission for the J-aggregate of JC-1 and 340-nm/380-nm for Fura2FF. At 400 s, a single 10 μM Ca^2+ pulse was added, and changes in cytosolic [Ca^2] was monitored. […]

[9] = tested on: AC16 cells; assay: Mitochondrial membrane potential (TMRM staining) in AC16 cells; assay type: cell-based, human
Procedure: To measure mitochondrial membrane potential, AC16 cells were stained with TMRM (62.5 nM, T668, Molecular Probes) for 30 minutes in the dark. TMRM stain was washed in warm PBS three times and imaged at 200× magnification using the Cy3 filter (510 nm excitation wavelength).

[10] = ventricular tissue 12 hours after CLP

COc1cc(C[C@@H](CO[C@@H]2O[C@H](CO)[C@@H](O)[C@H](O)[C@H]2O)[C@H](CO[C@@H]2O[C@H](CO)[C@@H](O)[C@H](O)[C@H]2O)Cc2ccc(O)c(OC)c2)ccc1O [LGM2605, secoisolariciresinol diglucoside]
adenylyl cyclase V/VI expression (AC/GAPDH ratio) [1]: restores cyclase V/VI expression pre-CLP levels
MCU protein level (western blot) ([2]; heart tissue, SDG following CLP, listed as SDG): increases MCU protein level; also recorded: increased protein expression of the mitochondrial calcium uniporter
MCU and MICU1 mRNA and protein expression ([2]; ventricular tissue 12 hours post-CLP, LGM2605 6 hrs post-CLP): did not affect expression of these proteins
phosphorylation of IκBα [3]: prevented by LGM2605
cardiac β-AR density [4]: not reversed by treatment with LGM2605
expression of fatty acid oxidation and glucose metabolism-related genes ([5]; CLP mice treated with SDG): did not restore the expression of fatty acid oxidation and glucose metabolism-related genes
PPARα and LCAD expression [5, 10]: did not reverse the CLP-mediated changes in the PPARα and LCAD
cardiac PDK4 mRNA levels [5, 10]: This increase was not alleviated by administration of LGM2605
plasma glucose levels ([6]; 6 hours and 12 hours post-CLP): hypoglycemia in septic mice was not alleviated by the administration of LGM2605
plasma triglyceride levels ([6]; 12 hours after surgery): trend of increase, which did not occur in septic mice treated with LGM2605
mitochondrial biogenesis markers PGC1α, PGC1β, mtTFA gene expression ([7]; ventricular tissue 12 hours post-CLP): None of these changes was affected by LGM2605
MFN1, MFN2, DRP1, and FIS1 expression ([7]; ventricular tissue 12 hrs after CLP): restored the CLP-mediated changes in MFN1, MFN2, DRP1, and FIS1 expression
mitochondrial calcium uptake [8]: increased mitochondrial Ca^2+ uptake rate and release of Ca^2+ following CCCP administration beyond that observed for sham operated mice
mitochondrial calcium uptake ([8]; listed as SDG): mitochondrial calcium uptake was increased
TMRM staining (mitochondrial membrane potential) ([9]; LGM2605 with 50 μM 2,4-DNP, with or without LPS): lost its beneficial effect in restoring TMRM staining
TMRM staining (mitochondrial membrane potential) ([9]; LPS and LGM2605 12 hours): significantly restored TMRM staining toward baseline

— patent US20210128596A1, “COMPOSITIONS AND METHODS FOR TREATING SEPTIC CARDIOMYOPATHY” (UNIVERSITY OF PENNSYLVANIA, priority 2017, published 2021)
